Results as given in publication PMC10222548, “Semisynthesis, Biological Evaluation and Molecular Docking Studies of Barbatic Acid Derivatives as Novel Diuretic Candidates” (Molecules, 2023).
Like-named read-outs stand apart in the source and are kept apart here.

How the values were obtained:
[1] = tested on: MDCK cells; assay: MTT cytotoxicity assay on MDCK cells; assay type: cell-based, canine; conditions: Canis lupus familiaris, 100 μmol/L, 24 h, mean ± SD of three replicates, read-out: Growth Inhibition Rate (%)
Description: First, we used the MTT method to perform cytotoxicity of barbatic acid derivatives (1, 6a–6p′) on MDCK cells at the concentration of 100 μmol/L, and the results are shown in Table 1.
The MTT assay was used to evaluate the cytotoxicity of the target compounds on DMCK cells. Logarithmic-growth-phase DMCK cells were seeded in a 96-well plate (10^4 cells/well) and incubated in a cell culture incubator for 24 h. The culture medium was then removed and replaced with a drug-containing medium for the treatment groups (1, 6a–6p′, 100 μmol/L), normal saline for the control group, or hydrochlorothiazide (100 μmol/L) for the positive control group. Each well was treated with 100 µL of the respective solution and incubated for an additional 24 h. The culture medium was then removed and replaced with a DMEM solution containing 20 µL of MTT (5 mg/mL). After incubating for 4 h, the liquid in each well was removed and replaced with 150 µL of DMSO, which was shaken for 10 min to ensure thorough mixing. The absorbance at 490 nm was measured to determine the optical density (OD) of each well. Cell growth inhibition rate (%) = (ODBlank − ODExperimental)/ODBlank × 100%.

[2] = tested on: Na^+ transport, MDCK cells; assay: In vitro diuretic activity: Na^+ transport inhibition, Transwell chamber seeded with MDCK cells; assay type: cell-based, canine; conditions: Canis lupus familiaris, MDCK, mean ± SD of three replicates, negative = promotion
Source text: (§1) The traditional methods for screening diuretic drugs are mostly in vivo experiments with mice, which have a long experimental cycle and are not suitable for screening massive compounds. As we know, the generation and excretion of urine involve two processes: glomerular filtration and tubular reabsorption. Reabsorption refers to the process in which the renal tubular epithelial cells transport water and certain solutes from the tubular fluid (urine) partially or entirely back into the bloodstream. Then, 99% of the water in the original urine filtered by the glomerulus is reabsorbed, and the transport of Na^+ and Cl^− plays an important role in this process. Thiazide and furosemide diuretics exert their diuretic effects by inhibiting the transport of Na^+ and Cl^−, which affects the tubular reabsorption of the original urine. Based on this principle, we established a new type of cell screening model for diuretic active drugs. Madin–Darby canine kidney (MDCK) cells were inoculated into a Transwell chamber to simulate the renal tubules. This cell model could transport and absorb external NaCl, simulating the reabsorption phenomenon. […] The effectiveness of this model was confirmed by the validation of hydrochlorothiazide, which is a commercially available diuretic drug and could inhibit the transport of Na^+ and Cl^− in renal tubules.
(§2) Generally, the transport of Na^+ and Cl^− plays an important role in glomerular filtration and tubular reabsorption. […] For example, inhibition rates of transport of 6a and 6c were over 30%, and had better inhibitory ability than barbatic acid. […] When ethyl, propyl, and benzyl were substituted on R^1, the introduction of any group could not enhance the inhibitory activity of barbatic acid, such as 6h–u and 6j′–6p′.
(§3) Log-phase MDCK cells were seeded in the upper chambers of Transwell plates (4 × 10^4 cells/well), and 800 µL of complete culture medium was added to the lower chambers. After 24 h of incubation at 37 °C, the electrical resistance of the upper chamber cells was measured one by one (R = (Rcell − Rblank) × 0.04π). When the electrical resistance of the upper chamber cells reached ≥300 Ω cm^2, the upper chamber medium was removed and replaced with the drug solution. The blank group (given normal saline), the experimental group (1, 6a–6p′, 100 μmol/L), and the hydrochlorothiazide group (100 μmol/L) were set, and each well was treated with 100 µL of the corresponding solution. The cells were then further incubated for 24 h. After that, the upper and lower chamber fluids were removed, and 200 µL of NaCl solution (15 mg/mL) was added to the upper chamber, while 800 µL of DMEM was added to the lower chamber for continued incubation. At 0.5, 1, 2, and 3 h, 50 µL of the lower chamber fluid was taken and the OD values were measured using Na^+ and Cl^− detection kits. The transport inhibition rate (%) was calculated as follows: transport inhibition rate (%) = (ODblank − ODexperimental)/ODblank × 100%.

[3] = tested on: Cl^− transport, MDCK cells; assay: In vitro diuretic activity: Cl^− transport inhibition, Transwell chamber seeded with MDCK cells; assay type: cell-based, canine; conditions: Canis lupus familiaris, read-out: Transport Inhibition Rate (%) Cl^−
Source text: as §1, §2, §3

[4] = tested on: Ca^2+ transport, MDCK cells; assay: In vitro litholytic activity: Ca^2+ transport inhibition, Transwell chamber with MDCK cells; assay type: cell-based, canine; conditions: Canis lupus familiaris, 100 μmol/L, mean ± SD of three replicates, read-out: Transport Inhibition Rate (%) Ca^2+
Description: (§4) On the other hand, all compounds had little inhibitory effect on Ca^2+ transport. The structure–activity relationships (SARs) were also observed. […] On the other hand, the introduction of the benzyl group to the R^1 or R^2 of barbatic acid could not lead to more promising compounds, such as 6a, 6n, 6u, 6b′, and 6i′–p′.
(§5) Logarithmic-phase DMCK cells were inoculated in the upper chamber of a Transwell plate (4 × 10^4 cells/well). Then, 800 µL of complete culture medium was added to the lower chamber, and the cells were incubated for 24 h until they adhered to the wall. The resistance value of the upper chamber cells was measured one by one at 37 °C (R = (Rcell − Rblank) × 0.04π). When the resistance value of the upper chamber cells was ≥300 Ω cm^2, the upper chamber liquid was discarded for drug administration. A control group (given physiological saline) and an experimental group (1, 6a–6p′, 100 μmol/L) were set up, and 100 µL of each drug was administered per well, followed by continued incubation for 24 h. Then, the upper and lower chamber liquids were discarded, and 200 µL of CaC2O4 (30 mmol/L) solution was added to the upper chamber, and 800 µL of PBS solution was added to the lower chamber for continued incubation. At 0.5, 1, 2, and 3 h, 50 µL of the lower chamber liquid was taken and then tested using the Ca^2+ and C2O4^2− detection kits and the following detection methods. The transport inhibition rate (%) = (ODblank − ODexperimental)/ODblank × 100%.

[5] = tested on: C2O4^2− transport, MDCK cells; assay: In vitro litholytic activity: C2O4^2− transport inhibition, Transwell chamber with MDCK cells; assay type: cell-based, canine; conditions: Canis lupus familiaris; 100 μmol/L, MDCK cells in Transwell; mean ± SD of three replicates; read-out: Transport Inhibition Rate (%) C2O4^2−
Description: as §4, §5

[6] = 100 μmol/L, MDCK cells in Transwell, read-out: Transport Inhibition Rate (%) Na^+
[7] = 100 μmol/L, MDCK cells in Transwell, mean ± SD of three replicates, negative = promotion

Cc1cc(OC(=O)c2c(C)cc(OC(C)C)c(C)c2O)c(C)c(O)c1C(=O)OC(C)C [Compound 6y, 3-hydroxy-4-(isopropoxycarbonyl)-2,5-dimethylphenyl 2-hydroxy-4-isopropoxy-3,6-dimethylbenzoate]
inhibition at 100 µM [1]: < 0% | inhibition at 100 µM [2, 6]: 29.4 ± 1.85% | inhibition at 100 µM [3, 7]: -43.3 ± 3.25% | inhibition at 100 µM [4]: 3.47 ± 0.3% | inhibition at 100 µM [5]: -26.3 ± 5.41% | melting point: 140 to 143 °C

CCCOc1cc(C)c(C(=O)Oc2cc(C)c(C(=O)OCc3ccccc3)c(O)c2C)c(O)c1C [Compound 6u, benzyl 2-hydroxy-4-(2-hydroxy-3,6-dimethyl-4-propoxybenzoyloxy)-3,6-dimethylbenzoate]
inhibition at 100 µM [1]: < 0% | inhibition at 100 µM [2, 6]: 6.31 ± 2.35% | inhibition at 100 µM [3, 7]: -15.9 ± 0.55% | inhibition at 100 µM [4]: 0.77 ± 0.09% | inhibition at 100 µM [5]: 22.3 ± 5.04% | melting point: 111 to 114 °C

COc1cc(C)c(C(=O)Oc2cc(C)c(C(=O)OC(C)C)c(O)c2C)c(O)c1C [Compound 6e, 3-hydroxy-4-(isopropoxycarbonyl)-2,5-dimethylphenyl 2-hydroxy-4-methoxy-3,6-dimethylbenzoate]
inhibition at 100 µM [1]: < 0% | inhibition at 100 µM [2, 6]: -0.88 ± 4.35% | inhibition at 100 µM [3, 7]: -3.13 ± 0.65% | inhibition at 100 µM [4]: -3.66 ± 0.27% | inhibition at 100 µM [5]: -2.05 ± 3% | melting point: 135 to 138 °C

C=CCOc1cc(C)c(C(=O)Oc2cc(C)c(C(=O)OCC#N)c(O)c2C)c(O)c1C [6h′, allyl 4-((cyanomethoxy)carbonyl)-3-hydroxy-2,5-dimethylphenyl 4-(allyloxy)-2-hydroxy-3,6-dimethylbenzoate]
inhibition at 100 µM [1]: < 0% | inhibition at 100 µM [2, 6]: -14.4 ± 2.4% | inhibition at 100 µM [3, 7]: 0.62 ± 0.7% | inhibition at 100 µM [4]: -0.38 ± 0.16% | inhibition at 100 µM [5]: 10.7 ± 1.41% | melting point: 124 to 127 °C

CCCOc1cc(C)c(C(=O)Oc2cc(C)c(C(=O)OCC)c(O)c2C)c(O)c1C [Compound 6p, 4-(ethoxycarbonyl)-3-hydroxy-2,5-dimethylphenyl 2-hydroxy-3,6-dimethyl-4-propoxybenzoate]
inhibition at 100 µM [1]: < 0% | inhibition at 100 µM [2, 6]: -12.2 ± 0.45% | inhibition at 100 µM [3, 7]: -18.38 ± 0.15% | inhibition at 100 µM [4]: 4.79 ± 0.46% | inhibition at 100 µM [5]: 4.29 ± 0.24% | melting point: 160 to 163 °C

CCCOC(=O)c1c(C)cc(OC(=O)c2c(C)cc(OC)c(C)c2O)c(C)c1O [Compound 6d, 3-hydroxy-2,5-dimethyl-4-(propoxycarbonyl)phenyl 2-hydroxy-4-methoxy-3,6-dimethylbenzoate]
inhibition at 100 µM [1]: 3.04 ± 0.3% | inhibition at 100 µM [2, 6]: 8.04 ± 0.4% | inhibition at 100 µM [3, 7]: -9.21 ± 0.45% | inhibition at 100 µM [4]: -9.93 ± 0.19% | inhibition at 100 µM [5]: -6.69 ± 8.67% | melting point: 146 to 149 °C

C=CCOC(=O)c1c(C)cc(OC(=O)c2c(C)cc(OC(C)C)c(C)c2O)c(C)c1O [Compound 6z, allyl 2-hydroxy-4-(2-hydroxy-4-isopropoxy-3,6-dimethylbenzoyloxy)-3,6-dimethylbenzoate]
inhibition at 100 µM [1]: 2.47 ± 0.5% | inhibition at 100 µM [2, 6]: -22.7 ± 1.05% | inhibition at 100 µM [3, 7]: -32.6 ± 3.1% | inhibition at 100 µM [4]: -2.56 ± 0.17% | inhibition at 100 µM [5]: 0.23 ± 2.16% | melting point: 111 to 114 °C

COC(=O)c1c(C)cc(OC(=O)c2c(C)cc(OCc3ccccc3)c(C)c2O)c(C)c1O [6j′, 3-hydroxy-4-(methoxycarbonyl)-2,5-dimethylphenyl 4-(benzyloxy)-2-hydroxy-3,6-dimethylbenzoate]
inhibition at 100 µM [1]: < 0% | inhibition at 100 µM [2, 6]: -5.13 ± 0.25% | inhibition at 100 µM [3, 7]: 0.62 ± 0.8% | inhibition at 100 µM [4]: 0% | inhibition at 100 µM [5]: -1.79 ± 3.79% | melting point: 131 to 134 °C

Cc1cc(OCc2ccccc2)c(C)c(O)c1C(=O)Oc1cc(C)c(C(=O)OCc2ccccc2)c(O)c1C [6p′, benzyl 4-(4-(benzyloxy)-2-hydroxy-3,6-dimethylbenzoyloxy)-2-hydroxy-3,6-dimethylbenzoate]
inhibition at 100 µM [1]: < 0% | inhibition at 100 µM [2, 6]: 16.3 ± 0.1% | inhibition at 100 µM [3, 7]: -5.43 ± 0.85% | inhibition at 100 µM [4]: -3.34 ± 0.26% | inhibition at 100 µM [5]: 7.16 ± 1.56% | melting point: 153 to 157 °C

C=CCOC(=O)c1c(C)cc(OC(=O)c2c(C)cc(OC)c(C)c2O)c(C)c1O [Compound 6f, allyl 2-hydroxy-4-(2-hydroxy-4-methoxy-3,6-dimethylbenzoyloxy)-3,6-dimethylbenzoate]
inhibition at 100 µM [1]: < 0% | inhibition at 100 µM [2, 6]: -0.5 ± 0.1% | inhibition at 100 µM [3, 7]: -0.61 ± 0.6% | inhibition at 100 µM [4]: -3.66 ± 0.25% | inhibition at 100 µM [5]: 6.89 ± 1.5% | melting point: 155 to 157 °C

C=CCOC(=O)c1c(C)cc(OC(=O)c2c(C)cc(OCC=C)c(C)c2O)c(C)c1O [6g′, allyl 4-(4-(allyloxy)-2-hydroxy-3,6-dimethylbenzoyloxy)-2-hydroxy-3,6-dimethylbenzoate]
inhibition at 100 µM [1]: < 0% | inhibition at 100 µM [2, 6]: 5.29 ± 0.15% | inhibition at 100 µM [3, 7]: 18.6 ± 2.2% | inhibition at 100 µM [4]: 2.79 ± 0.13% | inhibition at 100 µM [5]: -11.3 ± 1.9% | melting point: 110 to 113 °C

COc1cc(C)c(C(=O)Oc2cc(C)c(C(=O)OCC#N)c(O)c2C)c(O)c1C [Compound 6g]
inhibition at 100 µM [1]: 0.12 ± 0.1% | inhibition at 100 µM [2, 6]: 12.1 ± 1.3% | inhibition at 100 µM [3, 7]: -27.7 ± 1% | inhibition at 100 µM [4]: -8.61 ± 0.19% | inhibition at 100 µM [5]: -12.6 ± 2.88% | melting point: 184 to 187 °C

C=CCOc1cc(C)c(C(=O)Oc2cc(C)c(C(=O)OCCC)c(O)c2C)c(O)c1C [6e′, 3-hydroxy-2,5-dimethyl-4-(propoxycarbonyl)phenyl 4-(allyloxy)-2-hydroxy-3,6-dimethylbenzoate]
inhibition at 100 µM [1]: < 0% | inhibition at 100 µM [2, 6]: 2.79 ± 0.25% | inhibition at 100 µM [3, 7]: -12.9 ± 0.85% | inhibition at 100 µM [4]: 2.04 ± 0.08% | inhibition at 100 µM [5]: 5.77 ± 3.15%

NS(=O)(=O)c1cc2c(cc1Cl)NCNS2(=O)=O [Hyd, hydrochlorothiazide, reference compound]
inhibition at 100 µM [1]: < 0% | inhibition at 100 µM ([2]; read-out: Transport Inhibition Rate (%) Na^+, 100 μmol/L, MDCK cells in Transwell): 25.1 ± 0.85% | inhibition at 100 µM ([3]; MDCK): 19.7 ± 1%
